This test has as its target CK2A1 (CK2α/β) (Homo sapiens, UniProt P68400). Kind of test: CK2 kinase assay, CK2A1 (CK2α/β). The note with it: Table A; read-out: CK2A1 (CK2α/β) (IC50). Type of test: biochemical.
CK2A1 (CK2α/β), sequence (P68400 whole entry, species assumed): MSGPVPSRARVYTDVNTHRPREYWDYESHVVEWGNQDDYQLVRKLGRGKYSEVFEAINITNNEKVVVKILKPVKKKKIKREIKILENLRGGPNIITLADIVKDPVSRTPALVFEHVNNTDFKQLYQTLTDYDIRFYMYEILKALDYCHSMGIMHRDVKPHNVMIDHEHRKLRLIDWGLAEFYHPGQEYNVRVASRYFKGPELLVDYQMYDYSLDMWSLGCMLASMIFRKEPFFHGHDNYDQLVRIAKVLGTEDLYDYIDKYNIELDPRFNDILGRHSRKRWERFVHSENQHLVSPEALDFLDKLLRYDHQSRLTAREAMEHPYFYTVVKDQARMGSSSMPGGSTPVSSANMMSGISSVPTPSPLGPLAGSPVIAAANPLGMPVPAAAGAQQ
CK2A1 (CK2α/β), sequence (P67870 whole entry partner, species assumed): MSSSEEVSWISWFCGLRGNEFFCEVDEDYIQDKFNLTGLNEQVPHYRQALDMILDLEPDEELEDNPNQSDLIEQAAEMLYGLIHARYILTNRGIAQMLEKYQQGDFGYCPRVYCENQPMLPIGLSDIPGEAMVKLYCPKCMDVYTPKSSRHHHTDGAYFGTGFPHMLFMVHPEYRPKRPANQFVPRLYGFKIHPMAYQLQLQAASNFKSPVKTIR
Protocol: For example, in vitro protein kinase assays may be conducted with a relevant purified protein kinase and an appropriate synthetic substrate to determine the inhibitory activity of the compounds. […] Reaction mixtures were incubated at 30° C. for 1 hour, and reaction products were captured by binding to phosphocellulose (P81) filter plates. Incorporation of radioactive phosphate into the peptide substrate was determined by liquid scintillation counting.
The inhibitory activity of the instant compounds may also be measured by recombinant CK2 holoenzyme kinase assays. The assays were performed in U-bottom 384-well plates. […] The reaction was initiated by the combination of bacterially expressed, CK2 α/β or CK2 holoenzyme with substrates and test compounds. The reaction was incubated at room temperature for 60 minutes and terminated by adding 30 μl of 35 mM EDTA to each sample. The reaction mixture was analyzed on the Caliper LABCHIP® 3000 (Caliper, Hopkinton, Mass.) by electrophoretic separation of the fluorescent substrate and phosphorylated product. […] Compounds were dissolved at 10 mM in dimethylsulfoxide (DMSO) and evaluated at eleven concentrations. IC50 values were derived by non-linear regression analysis.
Turning to `COC(=O)Nc1cc(Nc2nc(NC3CC3)c3ncc(C#N)n3n2)c(Cl)c(N2CC(N3CCC(OC)CC3)C2)c1` [Example 204, methyl (4-chloro-3-((7-cyano-4-(cyclopropylamino)imidazo[2,1-f][1,2,4]triazin-2-yl)amino)-5-(3-(4-methoxy-1-piperidinyl)-1-azetidinyl)phenyl)carbamate], the IC50 was 0.87 nM.

`COC(=O)Nc1cc(Nc2nc(NC3CC3)c3ncc(C#N)n3n2)c(Cl)c(N2CCC(N3CCOCC3)CC2)c1` [Example 205, methyl (4-chloro-3-((7-cyano-4-(cyclopropylamino)imidazo[2,1-f][1,2,4]triazin-2-yl)amino)-5-(4-(4-morpholinyl)-1-piperidinyl)phenyl)carbamate]: the IC50 is 1.95 nM.

Regarding `N#Cc1cc(Nc2nc(NC3CC3)c3ncc(C#N)n3n2)c(Cl)c(C2CCNCC2)c1` [Example 208, 2-((2-chloro-5-cyano-3-(piperidin-4-yl)phenyl)amino)-4-(cyclopropylamino)imidazo[2,1-f][1,2,4]triazine-7-carbonitrile], the IC50 stood at 0.57 nM.

`CN1CCC(c2cc(C#N)cc(Nc3nc(NC4CC4)c4ncc(C#N)n4n3)c2Cl)CC1` [Example 209, 2-(2-chloro-5-cyano-3-(1-methylpiperidin-4-yl)phenylamino)-4-(cyclopropylamino)imidazo[1,2,f][1,2,4]triazine-7-carbonitrile]: the IC50 turned out to be 0.56 nM.

For `N#Cc1cc(Nc2nc(NC3CC3)c3ncc(C#N)n3n2)c(Cl)c(C2CCN(C3COC3)CC2)c1` [Example 210, 2-((2-chloro-5-cyano-3-(1-(3-oxetanyl)-4-piperidinyl)phenyl)amino)-4-(cyclopropylamino)imidazo[2,1-f][1,2,4]triazine-7-carbonitrile], the IC50 turned out to be 0.71 nM.

Turning to `COCCN1CCC(c2cc(C#N)cc(Nc3nc(NC4CC4)c4ncc(C#N)n4n3)c2Cl)CC1` [Example 211, 2-(2-chloro-5-cyano-3-(1-(2-methoxyethyl)piperidin-4-yl)phenylamino)-4-(cyclopropylamino)imidazo[1,2-f][1,2,4]triazine-7-carbonitrile], the IC50 was 0.9 nM.

As to `N#Cc1cc(Nc2nc(NC3CC3)c3ncc(C#N)n3n2)c(Cl)c(C2CCN(CC(F)F)CC2)c1` [Example 212, 2-(2-chloro-5-cyano-3-(1-(2,2-difluoroethyl)piperidin-4-yl)phenylamino)-4-(cyclopropylamino)imidazo[1,2-f][1,2,4]triazine-7-carbonitrile], the IC50 worked out at 0.78 nM.

On to `N#Cc1cc(Nc2nc(NC3CC3)c3ncc(C#N)n3n2)c(Cl)c(C2CCN(C3CCN(C4CC4)CC3)CC2)c1` [Example 213, 2-(2-chloro-5-cyano-3-(1′-cyclopropyl-1,4′-bipiperidin-4-yl)phenylamino)-4-(cyclopropylamino)imidazo[1,2-f][1,2,4]triazine-7-carbonitrile], for which the IC50 amounted to 4 nM.

Turning to `CCNc1nc(Nc2cc(C#N)cc(C3CCN(C[C@H](C)O)CC3)c2Cl)nn2c(C#N)cnc12` [Example 214, 2-((2-chloro-5-cyano-3-(1-((2S)-2-hydroxypropyl)-4-piperidinyl)phenyl)amino)-4-(ethylamino)imidazo[2,1-f][1,2,4]triazine-7-carbonitrile], the IC50 amounted to 4.55 nM.

Consider `N#Cc1cc(Nc2nc(NC3CC3)c3ncc(C#N)n3n2)c(Cl)c(C2CCN(CC3CC3)CC2)c1` [Example 215, 2-((2-chloro-5-cyano-3-(1-(cyclopropylmethyl)-4-piperidinyl)phenyl)amino)-4-(cyclopropylamino)imidazo[2,1-f][1,2,4]triazine-7-carbonitrile], for which the IC50 amounted to 0.62 nM.

With `C[C@H](O)CN1CCC(c2cc(C#N)cc(Nc3nc(NC4CC4)c4ncc(C#N)n4n3)c2Cl)CC1` [Example 216, (S)-2-(2-chloro-5-cyano-3-(1-(2-hydroxypropyl)piperidin-4-yl)phenylamino)-4-(cyclopropylamino)imidazo[1,2-f][1,2,4]triazine-7-carbonitrile], the IC50 is 1.02 nM.

For the compound `N#Cc1cc(Nc2nc(NC3CC3)c3ncc(C#N)n3n2)c(Cl)c(C2CCN(C3CC[C@@H](N)[C@H](O)C3)CC2)c1` (stereo partly drawn) [Example 217, 2-((3-(1-((3R,4R)-4-amino-3-hydroxycyclohexyl)-4-piperidinyl)-2-chloro-5-cyanophenyl)amino)-4-(cyclopropylamino)imidazo[2,1-f][1,2,4]triazine-7-carbonitrile], the IC50 amounted to 0.6 nM.

In the case of `CC(C)(O)CN1CCC(c2cc(C#N)cc(Nc3nc(NC4CC4)c4ncc(C#N)n4n3)c2Cl)CC1` [Example 219, 2-((2-chloro-5-cyano-3-(1-(2-hydroxy-2-methylpropyl)-4-piperidinyl)phenyl)amino)-4-(cyclopropylamino)imidazo[2,1-f][1,2,4]triazine-7-carbonitrile], the IC50 amounted to 0.59 nM.

`N#Cc1cc(Nc2nc(NC3CC3)c3ncc(C#N)n3n2)c(Cl)c(C2CCN(CC(N)=O)CC2)c1` [Example 220, 2-[4-(2-chloro-5-cyano-3-{[7-cyano-4-(cyclopropylamino)imidazo[2,1-f][1,2,4]triazin-2-yl]amino}phenyl)piperidin-1-yl]acetamide]: the IC50 is 0.7 nM.

In the case of `N#Cc1cc(Nc2nc(NC3CC3)c3ncc(C#N)n3n2)c(Cl)c(C2CCN(C3CC4(COC4)C3)CC2)c1` [Example 222, 2-((2-chloro-5-cyano-3-(1-(2-oxaspiro[3.3]hept-6-yl)-4-piperidinyl)phenyl)amino)-4-(cyclopropylamino)imidazo[2,1-f][1,2,4]triazine-7-carbonitrile], the IC50 was 1.17 nM.

For the compound `[2H]C1(N2CCC(c3cc(C#N)cc(Nc4nc(NC5CC5)c5ncc(C#N)n5n4)c3Cl)CC2)COC1` [Example 223, 2-((2-chloro-5-cyano-3-(1-(3-~2~H)-3-oxetanyl-4-piperidinyl)phenyl)amino)-4-(cyclopropylamino)imidazo[2,1-f][1,2,4]triazine-7-carbonitrile], the IC50 was 0.95 nM.

Consider `CC1(CN2CCC(c3cc(C#N)cc(Nc4nc(NC5CC5)c5ncc(C#N)n5n4)c3Cl)CC2)COC1` [Example 225, 2-((2-chloro-5-cyano-3-(1-((3-methyl-3-oxetanyl)methyl)-4-piperidinyl)phenyl)amino)-4-(cyclopropylamino)imidazo[2,1-f][1,2,4]triazine-7-carbonitrile], for which the IC50 was found to be 2 nM.

Take `COC(=O)N1CCC(c2cc(C#N)cc(Nc3nc(NC4CC4)c4ncc(C#N)n4n3)c2Cl)CC1` [Example 226, methyl 4-(2-chloro-5-cyano-3-((7-cyano-4-(cyclopropylamino)imidazo[2,1-f][1,2,4]triazin-2-yl)amino)phenyl)piperidine-1-carboxylate]: the IC50 came to 0.48 nM.

Regarding `COCC(=O)N1CCC(c2cc(C#N)cc(Nc3nc(NC4CC4)c4ncc(C#N)n4n3)c2Cl)CC1` [Example 227, 2-((2-chloro-5-cyano-3-(1-(methoxyacetyl)-4-piperidinyl)phenyl)amino)-4-(cyclopropylamino)imidazo[2,1-f][1,2,4]triazine-7-carbonitrile], the IC50 came to 0.59 nM.

As to `CC(=O)OC(C)(C)C(=O)N1CCC(c2cc(C#N)cc(Nc3nc(NC4CC4)c4ncc(C#N)n4n3)c2Cl)CC1` [Example 228, 2-(4-(2-chloro-5-cyano-3-((7-cyano-4-(cyclopropylamino)imidazo[2,1-f][1,2,4]triazin-2-yl)amino)phenyl)-1-piperidinyl)-1,1-dimethyl-2-oxoethyl acetate], the IC50 stood at 0.51 nM.

On to `N#CCC(=O)N1CCC(c2cc(C#N)cc(Nc3nc(NC4CC4)c4ncc(C#N)n4n3)c2Cl)CC1` [Example 230, 2-((2-chloro-5-cyano-3-(1-(cyanoacetyl)-4-piperidinyl)phenyl)amino)-4-(cyclopropylamino)imidazo[2,1-f][1,2,4]triazine-7-carbonitrile], for which the IC50 was 1.04 nM.

Regarding `CC(C)(O)C(=O)N1CCC(c2cc(C#N)cc(Nc3nc(NC4CC4)c4ncc(C#N)n4n3)c2Cl)CC1` [Example 231, 2-((2-chloro-5-cyano-3-(1-(2-hydroxy-2-methylpropanoyl)-4-piperidinyl)phenyl)amino)-4-(cyclopropylamino)imidazo[2,1-f][1,2,4]triazine-7-carbonitrile], the IC50 is 0.45 nM.

Turning to `N#Cc1cc(Nc2nc(NC3CC3)c3ncc(C#N)n3n2)c(Cl)c(C2CCN(C(=O)C3(O)CC3)CC2)c1` [Example 232, 2-((2-chloro-5-cyano-3-(1-((1-hydroxycyclopropyl)carbonyl)-4-piperidinyl)phenyl)amino)-4-(cyclopropylamino)imidazo[2,1-f][1,2,4]triazine-7-carbonitrile], the IC50 was 0.62 nM.

For the compound `CC1(C(=O)N2CCC(c3cc(C#N)cc(Nc4nc(NC5CC5)c5ncc(C#N)n5n4)c3Cl)CC2)COC1` [Example 233, 2-((2-chloro-5-cyano-3-(1-((3-methyl-3-oxetanyl)carbonyl)-4-piperidinyl)phenyl)amino)-4-(cyclopropylamino)imidazo[2,1-f][1,2,4]triazine-7-carbonitrile], the IC50 came to 0.58 nM.

Consider `CC(C)(C)C(=O)N1CCC(c2cc(C#N)cc(Nc3nc(NC4CC4)c4ncc(C#N)n4n3)c2Cl)CC1` [Example 234, 2-((2-chloro-5-cyano-3-(1-(2,2-dimethylpropanoyl)-4-piperidinyl)phenyl)amino)-4-(cyclopropylamino)imidazo[2,1-f][1,2,4]triazine-7-carbonitrile], for which the IC50 was 1.6 nM.

As for `CC(C)(C)CC(=O)N1CCC(c2cc(C#N)cc(Nc3nc(NC4CC4)c4ncc(C#N)n4n3)c2Cl)CC1` [Example 235, 2-((2-chloro-5-cyano-3-(1-(3,3-dimethylbutanoyl)-4-piperidinyl)phenyl)amino)-4-(cyclopropylamino)imidazo[2,1-f][1,2,4]triazine-7-carbonitrile], the IC50 came to 3.86 nM.

On to `N#Cc1cc(Nc2nc(NC3CC3)c3ncc(C#N)n3n2)c(Cl)c(C2CCN(C(=O)C3CC3)CC2)c1` [Example 236, 2-((2-chloro-5-cyano-3-(1-(cyclopropylcarbonyl)-4-piperidinyl)phenyl)amino)-4-(cyclopropylamino)imidazo[2,1-f][1,2,4]triazine-7-carbonitrile], for which the IC50 was 0.78 nM.

For the origin of these results see patent US9273057B2 (Bristol-Myers Squibb Company, priority 2012, dated 2016).
